Series [1] relates to Pseudomonas aeruginosa. Kind of series: Broth microdilution MIC (Example 11). The format is cell-based. To be noted: P. aeruginosa MMX 103 (ATCC 27853); QC.
The subject of series [2] is Staphylococcus aureus (MRSA). Kind of series: Broth microdilution MIC (Example 11). Type of series: cell-based. To be noted: MRSA, LevR, CipR, EryR, OxR. (In general: In broth dilution the organism is exposed to a series of concentrations in liquid medium.)
Series [3] relates to Enterococcus spp. (E. faecalis, E. faecium). Kind of series: Broth microdilution MIC (Example 11). The format is cell-based. The note with it: enterococci incl. vancomycin-resistant E. faecalis and E. faecium.
In series [4] the test system is S. pneumoniae (pneumococci). Kind of series: Broth microdilution MIC (Example 11). The format is cell-based, Streptococcus pneumoniae. The note with it: pneumococci incl. multi-drug resistant.
Series [5] concerns Candida spp. Kind of series: Broth microdilution MIC, yeast (Example 13), group statement and QC. Type of series: cell-based. To be noted: C. parapsilosis ATCC 22019, footnote b not given.
A short description of series [6]: Phase 1 human clinical studies, topical administration. Type of series: in vivo. To be noted: humans.
Series [7] in a line: Rat single-dose PK: whole blood BisEDT (bismuth by ICP-MS).
Series [8] has as its system P. aeruginosa. Kind of series: Checkerboard FIC assay, BisEDT with CF agents (Example 10). Type of series: cell-based, Pseudomonas aeruginosa. To be noted: agent alone, as observed during FIC testing.
The test system of series [9] is P. aeruginosa. Kind of series: Broth microdilution MIC (Example 10).
The subject of series [10] is Pseudomonas aeruginosa. Kind of series: Broth microdilution MIC (Example 12).
The subject of series [11] is Acinetobacter baumannii. Kind of series: Broth microdilution MIC (Example 12).

Values after ≈ are worked out from the molar mass of the structure shown.

The term MIC denotes the least concentration at which growth counts as inhibited. With `CC(S)C(C)S.[Bi]` (centres unmarked) [BisBDT, bismuth-2,3-butanedithiol], the MIC in series [1] was 1 µg/mL; in series [2] (S. aureus MMX 5373, CCR), at most 0.06 µg/mL; in series [2] (S. aureus MMX 6311, CCR), at most 0.06 µg/mL; in series [2] (S. aureus MMX 9204), at most 0.06 µg/mL; in [2] (S. aureus MMX 9205, CCR), at most 0.06 µg/mL. Further, the “MIC values (range across isolates)” value in series [3] lay in the range of 0.25 to 1 µg/mL; in series [4], 0.5 to 8 µg/mL. For the same molecule, in [5] (24 hr), the “MIC 24 hr, second value of the pair x/y” value came out at 2. Besides, in [5] (48 hr), the “MIC 48 hr, second value of the pair x/y” value amounted to 4.
Consider `C1C[S][Bi]([S]CC[S][Bi]2[S]CC[S]2)[S]1` [BisEDT, bismuth-1,2-ethanedithiol], for which the concentration well-tolerated entry in [6] (administered topically for 6 hours) is given as “up to 2500 μg/cm^2”. Moreover, the concentration tolerated result in [6] (topical, over 21 days continuous exposure to normal and abraded skin) is on record as “up to 75 μg/cm^2”. For the same molecule, the “duration of initial distribution into tissues” value in series [7] (IV dosing, biphasic pattern) is 18 h. Besides, the “systemic levels lower than in the lung” value in series [7] (inhalation dosing) is on record as “about 10 ×”. The blood exposure entry in series [7] (inhalation dosing 100 μg/kg) is “sustained, moderate, blood exposure with relatively stable concentrations across time”. Further, the blood concentrations entry in series [7] (oral dosing 250 μg/kg) was “very low, but sustained and measurable”.
Regarding `C[C@@H](O)[C@H]1C(=O)N2C(C(=O)O)=C(S[C@@H]3CN[C@H](C(=O)N(C)C)C3)[C@H](C)[C@H]12` [MEM], the MIC in series [8] (P. aeruginosa isolate 6322) came out at 16 µg/mL; in series [8] (P. aeruginosa isolate 6977), 8 µg/mL; in series [8] (P. aeruginosa isolate 7745) it was 16 µg/mL; in series [8] (P. aeruginosa isolate 8798), 32 µg/mL; in [8] (P. aeruginosa isolate 9108) it was 1 µg/mL; in series [9] (P. aeruginosa isolate 103 (ATCC 25922), QC strain, initial MIC testing), 1 µg/mL (≈ 2.61 µM). The MIC in series [9] (P. aeruginosa isolate 103 (ATCC 25922), during FIC testing, each agent tested alone for QC, one replicate) worked out at 1 µg/mL; in [9] (P. aeruginosa isolate 1497 (TOB-R, AMK-R, CIP-I, AZT-R, COL-R), initial MIC testing) it was 0.06 µg/mL (≈ 0.156 µM); in series [9] (P. aeruginosa isolate 1530 (TOB-R, AMK-R, CIP-R), initial MIC testing) it was 0.5 µg/mL (≈ 1.3 µM); in [9] (P. aeruginosa isolate 1553 (TOB-R, AMK-R, CIP-R), initial MIC testing) it was 0.5 µg/mL (≈ 1.3 µM); in [9] (P. aeruginosa isolate 6322 (MEM-R, TOB-R, AMK-R, CIP-R, AZT-R), initial MIC testing), 16 µg/mL (≈ 41.7 µM); in series [9] (P. aeruginosa isolate 6977 (MEM-I, TOB-R, CIP-R, AZT-I), initial MIC testing), 4 µg/mL (≈ 10.4 µM). Further, the MIC in series [9] (P. aeruginosa isolate 7745 (MEM-R, CIP-R, AZT-R), initial MIC testing) was found to be 16 µg/mL (≈ 41.7 µM); in series [9] (P. aeruginosa isolate 7754 (MEM-R, TOB-R, CIP-R, AZT-I), initial MIC testing) it was 32 µg/mL (≈ 83.4 µM); in series [9] (P. aeruginosa isolate 7762 (MEM-I, CIP-I), initial MIC testing), 4 µg/mL (≈ 10.4 µM); in series [9] (P. aeruginosa isolate 7871 (MEM-R, AZT-I), initial MIC testing) it was 8 µg/mL (≈ 20.9 µM); in [9] (P. aeruginosa isolate 7874, initial MIC testing), 1 µg/mL (≈ 2.61 µM); in [9] (P. aeruginosa isolate 7886 (MEM-R, CIP-R, AZT-R), initial MIC testing), 32 µg/mL (≈ 83.4 µM). Moreover, the MIC in series [9] (P. aeruginosa isolate 8797 (MEM-R, TOB-R, AMK-R, CIP-R, AZT-R, COL-R), initial MIC testing) was 32 µg/mL (≈ 83.4 µM); in series [9] (P. aeruginosa isolate 8798 (MEM-R, TOB-R, AMK-R, CIP-R, AZT-R, COL-R), initial MIC testing), 64 µg/mL (≈ 167 µM); in series [9] (P. aeruginosa isolate 9108 (CIP-R, AZT-I), initial MIC testing) it was 0.5 µg/mL (≈ 1.3 µM); in series [10] (P. aeruginosa ATCC 27853, QC organism), 0.25 µg/mL (≈ 0.652 µM); in series [10] (Pseudomonas aeruginosa CDC 230, VIM/OXA), above 8 µg/mL; in series [10] (Pseudomonas aeruginosa CDC 231, KPC/OXA), above 8 µg/mL. Further, the MIC in series [10] (Pseudomonas aeruginosa CDC 241, IMP/OXA) was above 8 µg/mL; in series [10] (Pseudomonas aeruginosa CDC 246, NDM/OXA) it was above 8 µg/mL; in series [10] (Pseudomonas aeruginosa CDC 250, NDM/OXA), above 8 µg/mL; in [10] (Pseudomonas aeruginosa CDC 356, KPC), above 8 µg/mL; in [10] (Pseudomonas aeruginosa CDC 439, IMP), above 8 µg/mL; in [10] (Pseudomonas aeruginosa CDC 444, VIM), above 8 µg/mL. For the same molecule, the MIC in series [10] (Pseudomonas aeruginosa CDC 457, VIM) was above 8 µg/mL; in series [10] (Pseudomonas aeruginosa CDC 516, KPC/AmpC), above 8 µg/mL; in series [10] (Pseudomonas aeruginosa CDC 518, KPC/AmpC) it was above 8 µg/mL; in series [11] (Acinetobacter baumannii CDC 273, ESBL/OXA) it was above 8 µg/mL; in series [11] (Acinetobacter baumannii CDC 274, ESBL/OXA), above 8 µg/mL; in series [11] (Acinetobacter baumannii CDC 275, ESBL/OXA), above 8 µg/mL. Moreover, the MIC in series [11] (Acinetobacter baumannii CDC 277, ESBL/OXA) is above 8 µg/mL; in series [11] (Acinetobacter baumannii CDC 284, ESBL/OXA) it was above 8 µg/mL; in [11] (Acinetobacter baumannii CDC 307, OXA), 8 µg/mL (≈ 20.9 µM); in [11] (Acinetobacter baumannii CDC 308, ESBL/OXA) it was 8 µg/mL (≈ 20.9 µM); in series [11] (Acinetobacter baumannii CDC 311, OXA), above 8 µg/mL; in series [11] (Acinetobacter baumannii CDC 312, OXA), 4 µg/mL (≈ 10.4 µM). Moreover, the MIC is above 8 µg/mL in series [11] (Acinetobacter baumannii CDC 313, ESBL/OXA) and above 8 µg/mL in [11] (Acinetobacter baumannii NCTC 13304, OXA).
